The text below walks through data of patent publication US11306079B2, “3-(5-amino-pyrazin-2-yl)-benzenesulfonamide derivatives and related compounds as PI3K-gamma kinase inhibitors” (Incyte Corporation, priority 2017, dated 2022).

Counter-ions that a name gives are not always drawn.

Assay [1] concerns the target PI3Kγ (p110γ) Recombinant Human Protein (Homo sapiens (Human), UniProt P48736). As to the kind of experiment: PI3K-γ Scintillation Proximity Assay. In kind it is biochemical. The conditions noted are these: 20 μM PIP2, 2 μM ATP, 13 nM PI3Kγ, 120 min, room temperature. The method in brief: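 Recombinant human p110γ (13 nM) phosphorylated 20 μM PIP2 with 2 μM ATP plus [γ-33P]ATP in 20 mM MOPS pH 6.7, 10 mM MgCl2, 5 mM DTT, 0.03% CHAPS, 2% DMSO, 120 min at room temperature. Radiolabelled product was captured on WGA SPA beads and counted. IC50 came from curves of percent solvent-control activity.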

The target in assay [2] is PI3Kδ (p110δ/p85α) Recombinant Human Protein (Homo sapiens (Human), UniProt O00329). Put plainly: PI3Kδ Scintillation Proximity Assay. The assay is classed as biochemical. Conditions: 20 μM PIP2, 2 μM ATP, 3.4 nM PI3Kδ, 120 min, room temperature. The method in brief:
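IC50 was fitted to percent solvent-control activity from SPA scintillation counts after WGA bead capture of 33P-labelled lipid product. Reaction: 120 min, room temperature, 3.4 nM p110δ/p85α, 20 μM PIP2, 2 μM ATP with tracer, MOPS pH 6.7 buffer containing MgCl2, DTT, CHAPS, 2% DMSO.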
A general note: SPA uses beads or plates that emit light when radiolabelled molecules are held near them.

Assay [3] relates to Phosphorylated Ribosomal Protein S6 (RPS6) in THP-1 cells. Put plainly: THP-1 RPS6 ELISA Assay. In kind it is cell-based. The conditions noted are these: Homo sapiens; serum starved THP-1 cells, 2 hours with compound, 10 nM MCP-1 for 15 minutes, Phospho-RPS6 ELISA; read-out: PI3Kγ_THP1_RPS6_ELISA IC50. Summed up: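 Phospho-RPS6 in lysates measured by ELISA at 450 nm, corrected at 540 nm, after MCP-1 challenge (10 nM, 15 min) of THP-1 cells that were starved overnight and exposed to test compound for 2 h at 37° C, 2×10^5 cells/well. Curve fit of percent inhibition gives IC50.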

PI3Kδ (p110δ/p85α) Recombinant Human Protein, sequence (O00329 whole entry): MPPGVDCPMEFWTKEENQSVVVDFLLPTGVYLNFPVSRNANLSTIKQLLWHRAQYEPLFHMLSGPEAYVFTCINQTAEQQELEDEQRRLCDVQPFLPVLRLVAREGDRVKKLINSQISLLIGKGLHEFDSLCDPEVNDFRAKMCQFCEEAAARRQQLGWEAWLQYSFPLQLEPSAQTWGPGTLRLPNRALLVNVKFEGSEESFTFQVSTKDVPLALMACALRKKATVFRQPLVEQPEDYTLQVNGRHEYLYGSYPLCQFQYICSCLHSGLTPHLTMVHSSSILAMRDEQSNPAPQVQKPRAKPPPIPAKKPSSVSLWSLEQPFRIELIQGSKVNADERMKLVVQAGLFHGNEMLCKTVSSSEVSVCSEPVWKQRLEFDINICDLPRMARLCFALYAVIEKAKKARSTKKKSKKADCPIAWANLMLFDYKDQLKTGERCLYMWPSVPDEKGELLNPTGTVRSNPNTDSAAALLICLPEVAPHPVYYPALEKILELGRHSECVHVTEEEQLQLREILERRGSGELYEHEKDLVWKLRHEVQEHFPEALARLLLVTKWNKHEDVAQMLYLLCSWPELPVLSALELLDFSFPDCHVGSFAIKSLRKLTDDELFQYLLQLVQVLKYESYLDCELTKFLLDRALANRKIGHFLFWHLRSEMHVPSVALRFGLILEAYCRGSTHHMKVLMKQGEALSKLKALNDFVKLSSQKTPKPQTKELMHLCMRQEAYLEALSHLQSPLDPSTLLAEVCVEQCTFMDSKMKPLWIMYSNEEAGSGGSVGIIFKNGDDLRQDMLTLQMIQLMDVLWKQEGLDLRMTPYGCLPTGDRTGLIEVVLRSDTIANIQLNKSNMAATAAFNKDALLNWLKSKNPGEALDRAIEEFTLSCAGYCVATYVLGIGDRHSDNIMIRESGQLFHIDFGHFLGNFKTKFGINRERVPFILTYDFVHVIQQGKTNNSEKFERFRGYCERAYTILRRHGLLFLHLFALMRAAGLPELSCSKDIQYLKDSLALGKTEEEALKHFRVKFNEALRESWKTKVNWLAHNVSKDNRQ
PI3Kδ (p110δ/p85α) Recombinant Human Protein, sequence (P27986 whole entry partner): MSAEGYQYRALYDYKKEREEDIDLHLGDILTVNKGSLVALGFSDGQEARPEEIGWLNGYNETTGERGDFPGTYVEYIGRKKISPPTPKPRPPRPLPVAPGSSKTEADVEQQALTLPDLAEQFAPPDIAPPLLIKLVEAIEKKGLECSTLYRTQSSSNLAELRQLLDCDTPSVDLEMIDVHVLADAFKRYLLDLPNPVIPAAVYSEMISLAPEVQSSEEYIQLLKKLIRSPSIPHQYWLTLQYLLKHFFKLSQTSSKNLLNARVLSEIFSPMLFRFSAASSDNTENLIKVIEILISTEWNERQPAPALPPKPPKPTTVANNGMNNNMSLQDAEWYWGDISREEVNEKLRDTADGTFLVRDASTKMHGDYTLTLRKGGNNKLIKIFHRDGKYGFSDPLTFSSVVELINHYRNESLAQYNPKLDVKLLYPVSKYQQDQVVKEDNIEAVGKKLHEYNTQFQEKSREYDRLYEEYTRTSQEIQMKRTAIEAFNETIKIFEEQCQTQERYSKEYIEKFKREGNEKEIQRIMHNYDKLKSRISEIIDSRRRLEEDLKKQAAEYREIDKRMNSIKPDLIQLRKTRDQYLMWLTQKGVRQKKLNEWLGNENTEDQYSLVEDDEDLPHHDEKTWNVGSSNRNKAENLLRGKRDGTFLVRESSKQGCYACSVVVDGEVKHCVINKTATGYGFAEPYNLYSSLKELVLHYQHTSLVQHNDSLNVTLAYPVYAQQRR
PI3Kγ (p110γ) Recombinant Human Protein, sequence (P48736 whole entry): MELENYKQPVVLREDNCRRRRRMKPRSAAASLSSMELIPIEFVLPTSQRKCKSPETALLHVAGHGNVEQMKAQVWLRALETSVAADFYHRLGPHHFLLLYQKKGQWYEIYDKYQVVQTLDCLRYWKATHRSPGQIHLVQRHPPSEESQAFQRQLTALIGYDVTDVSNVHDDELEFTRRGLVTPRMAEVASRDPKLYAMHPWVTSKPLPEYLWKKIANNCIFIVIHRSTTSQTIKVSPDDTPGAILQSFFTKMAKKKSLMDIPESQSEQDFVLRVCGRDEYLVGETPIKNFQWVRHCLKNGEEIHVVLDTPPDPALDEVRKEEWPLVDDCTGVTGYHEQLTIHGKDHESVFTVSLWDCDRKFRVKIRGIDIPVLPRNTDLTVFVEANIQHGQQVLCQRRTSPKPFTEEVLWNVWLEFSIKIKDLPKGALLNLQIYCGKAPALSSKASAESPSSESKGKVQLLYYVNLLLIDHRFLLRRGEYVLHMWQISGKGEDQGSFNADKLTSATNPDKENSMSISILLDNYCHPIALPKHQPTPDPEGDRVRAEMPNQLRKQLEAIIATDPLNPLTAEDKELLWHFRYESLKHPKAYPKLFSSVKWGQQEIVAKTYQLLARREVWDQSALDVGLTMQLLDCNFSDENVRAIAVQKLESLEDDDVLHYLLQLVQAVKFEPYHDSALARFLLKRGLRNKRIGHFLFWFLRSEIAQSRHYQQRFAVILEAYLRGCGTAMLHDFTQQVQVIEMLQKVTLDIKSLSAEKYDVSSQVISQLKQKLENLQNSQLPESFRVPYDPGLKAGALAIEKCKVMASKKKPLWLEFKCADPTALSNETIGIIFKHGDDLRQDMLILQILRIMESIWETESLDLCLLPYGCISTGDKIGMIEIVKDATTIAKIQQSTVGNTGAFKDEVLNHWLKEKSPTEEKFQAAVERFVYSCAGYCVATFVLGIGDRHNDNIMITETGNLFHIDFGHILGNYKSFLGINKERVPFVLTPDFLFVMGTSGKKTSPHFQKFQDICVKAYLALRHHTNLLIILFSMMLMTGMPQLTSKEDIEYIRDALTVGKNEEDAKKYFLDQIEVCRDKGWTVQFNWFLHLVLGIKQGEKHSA

Take `Cc1ncc(-c2nc(-c3cc(S(=O)(=O)NC45CC(C#N)(C4)C5)ccc3C)cnc2N)s1` [Example 1, 3-(5-Amino-6-(2-methylthiazol-5-yl)pyrazin-2-yl)-N-(3-cyanobicyclo[1.1.1]pentan-1-yl)-4-methylbenzenesulfonamide Trifluoroacetate Salt]: the IC50 in assay [1], in assay [2] and in assay [3] was not above 100 nM each time.

For `Cc1ncc(-c2nc(-c3cc(S(=O)(=O)NC45CC(CO)(C4)C5)ccc3C)cnc2N)s1` [Example 3, 3-(5-Amino-6-(2-methylthiazol-5-yl)pyrazin-2-yl)-N-(3-(hydroxymethyl)bicyclo[1.1.1]pentan-1-yl)-4-methylbenzenesulfonamide trifluoroacetate salt], the concentration for half-maximal inhibition (IC50) in assay [1], in assay [2] and in assay [3] was not above 100 nM each time.

In the case of `O=C(O)C(F)(F)F.[2H]C([2H])([2H])c1ccc(S(=O)(=O)NC23CNC(C2)C3)cc1-c1cnc(N)c(-c2cnco2)n1` [Example 56, 3-(5-Amino-6-(oxazol-5-yl)pyrazin-2-yl)-N-(2-azabicyclo[2.1.1]hexan-4-yl)-4-(methyl-d3)benzenesulfonamide trifluoroacetate salt], the IC50 in assay [1] was not above 100 nM; in assay [2], not above 500 nM; in assay [3], not above 1000 nM.

`Cc1ccc(S(=O)(=O)NC23CCC(CO)(C2)C3)cc1-c1cnc(N)c(-c2cn(C)nc2C)n1` [Example 13, 3-(5-Amino-6-(1,3-dimethyl-1H-pyrazol-4-yl)pyrazin-2-yl)-N-(4-(hydroxymethyl)bicyclo[2.1.1]hexan-1-yl)-4-methylbenzenesulfonamide trifluoroacetate salt]: the IC50 was not above 100 nM in assay [1], not above 500 nM in assay [2] and not above 500 nM in assay [3].

As to `Cc1ncc(-c2nc(-c3cc(S(=O)(=O)NC45COC(CO)(C4)C5)ccc3C)cnc2N)s1` [Example 4, 3-(5-Amino-6-(2-methylthiazol-5-yl)pyrazin-2-yl)-N-(1-(hydroxymethyl)-2-oxabicyclo[2.1.1]hexan-4-yl)-4-methylbenzenesulfonamide trifluoroacetate salt], the IC50 in assay [1], in assay [2] and in assay [3] was not above 100 nM throughout.

As to `O=C(O)C(F)(F)F.[2H]C([2H])([2H])c1ccc(S(=O)(=O)NC23CNC(C2)C3)cc1-c1cnc(N)c(-c2cnc(C)s2)n1` [Example 54, 3-(5-Amino-6-(2-methylthiazol-5-yl)pyrazin-2-yl)-N-(2-azabicyclo[2.1.1]hexan-4-yl)-4-(methyl-d3)benzenesulfonamide trifluoroacetate salt], the IC50 in assay [1] is not above 100 nM; in assay [2], not above 100 nM; in assay [3] it was not above 500 nM.

`Cc1ncc(-c2nc(-c3cc(S(=O)(=O)NC45CCC(C#N)(C4)C5)ccc3C)cnc2N)s1` [Example 2, 3-(5-Amino-6-(2-methylthiazol-5-yl)pyrazin-2-yl)-N-(4-cyanobicyclo[2.1.1]hexan-1-yl)-4-methylbenzenesulfonamide trifluoroacetate salt]: the concentration for half-maximal inhibition (IC50) in assay [1], in assay [2] and in assay [3] was not above 100 nM each time.

With `Cc1ccc(S(=O)(=O)NC23CCC(C#N)(C2)C3)cc1-c1cnc(N)c(-c2cn(C)nc2C)n1` [Example 11, 3-(5-Amino-6-(1,3-dimethyl-1H-pyrazol-4-yl)pyrazin-2-yl)-N-(4-cyanobicyclo[2.1.1]hexan-1-yl)-4-methylbenzensulfonamide trifluoroacetate salt], the half-inhibitory concentration (IC50) in assay [1] is not above 100 nM; in assay [2] it was not above 500 nM; in assay [3], not above 500 nM.

For the compound `[2H]C([2H])([2H])c1ccc(S(=O)(=O)NC23CCC(C#N)(C2)C3)cc1-c1cnc(N)c(-c2ncccn2)n1` [Example 70, 3-(5-Amino-6-(pyrimidin-2-yl)pyrazin-2-yl)-N-(4-cyanobicyclo[2.1.1]hexan-1-yl)-4-(methyl-d3)benzenesulfonamide trifluoroacetate salt], the IC50 is not above 100 nM in assay [1], less than 2000 nM in assay [2] and not below 1000 nM in assay [3].

`[2H]C([2H])([2H])c1ccc(S(=O)(=O)NC23CCC(O)(C2)C3)cc1-c1cnc(N)c(-c2ccnc(SC)n2)n1` [Example 77, 3-(5-Amino-6-(2-(methylthio)pyrimidin-4-yl)pyrazin-2-yl)-N-(4-hydroxybicyclo[2.1.1]hexan-1-yl)-4-(methyl-d3)benzenesulfonamide]: the IC50 in assay [1], in assay [2] and in assay [3] was not above 100 nM in each case.

On to `Cc1ncc(-c2nc(-c3cc(S(=O)(=O)NC45CCC(CO)(CC4)OC5)ccc3C)cnc2N)s1` [Example 6, 3-(5-Amino-6-(2-methylthiazol-5-yl)pyrazin-2-yl)-N-(1-(hydroxymethyl)-2-oxabicyclo[2.2.2]octan-4-yl)-4-methylbenzenesulfonamide trifluoroacetate salt], for which the IC50 in assay [1], in assay [2] and in assay [3] was not above 100 nM each time.

`Cc1ccc(S(=O)(=O)NC23CC(CO)(C2)C3)cc1-c1cnc(N)c(-c2cn(C)nc2C)n1` [Example 15, 3-(5-amino-6-(1,3-dimethyl-1H-pyrazol-4-yl)pyrazin-2-yl)-N-(3-(hydroxymethyl)bicyclo[1.1.1]pentan-1-yl)-4-methylbenzenesulfonamide trifluoroacetate salt]: the IC50 was not above 100 nM in assay [1], not above 500 nM in assay [2] and not above 500 nM in assay [3].

As to `Cc1ccc(S(=O)(=O)NC23CC(C#N)(C2)C3)cc1-c1cnc(N)c(-n2cncn2)n1` [Example 23, 3-(5-Amino-6-(1H-1,2,4-triazol-1-yl)pyrazin-2-yl)-N-(3-cyanobicyclo[1.1.1]pentan-1-yl)-4-methylbenzenesulfonamide Trifluoroacetate Salt], the IC50 in assay [1] was not above 100 nM; in assay [2], not above 100 nM; in assay [3], not above 500 nM.

As for `[2H]C([2H])([2H])c1ccc(S(=O)(=O)NC23CC(C#N)(C2)C3)cc1-c1cnc(N)c(-c2ccncn2)n1` [Example 79, 3-(5-Amino-6-(pyrimidin-4-yl)pyrazin-2-yl)-N-(3-cyanobicyclo[1.1.1]pentan-1-yl)-4-(methyl-d3)benzenesulfonamide Trifluoroacetate Salt], the IC50 in assay [1], in assay [2] and in assay [3] was not above 100 nM each time.

For `Cc1ccc(S(=O)(=O)NC23CCC(CO)(CC2)OC3)cc1-c1cnc(N)c(-c2ccnc(C(F)(F)F)c2)n1` [Example 21, 3-(5-Amino-6-(2-(trifluoromethyl)pyridin-4-yl)pyrazin-2-yl)-N-(1-(hydroxymethyl)-2-oxabicyclo[2.2.2]octan-4-yl)-4-methylbenzenesulfonamide trifluoroacetate salt], the concentration for half-maximal inhibition (IC50) was not above 100 nM in assay [1], not above 500 nM in assay [2] and not above 500 nM in assay [3].

For the compound `[2H]C([2H])([2H])c1ccc(S(=O)(=O)NC23CC(CO)(C2)C3)cc1-c1cnc(N)c(-c2ccnc(SC)n2)n1` [Example 78, 3-(5-Amino-6-(2-(methylthio)pyrimidin-4-yl)pyrazin-2-yl)-N-(3-(hydroxymethyl)bicyclo[1.1.1]pentan-1-yl)-4-(methyl-d3)benzenesulfonamide], the 50% inhibitory concentration (IC50) in assay [1], in assay [2] and in assay [3] was not above 100 nM each time.

Regarding `[2H]C([2H])([2H])c1ccc(S(=O)(=O)NC23CC(C#N)(C2)C3)cc1-c1cnc(N)c(-c2ccnc(SC)n2)n1` [Example 76, 3-(5-Amino-6-(2-(methylthio)pyrimidin-4-yl)pyrazin-2-yl)-N-(3-cyanobicyclo[1.1.1]pentan-1-yl)-4-(methyl-d3)benzenesulfonamide], the IC50 in assay [1], in assay [2] and in assay [3] was not above 100 nM each time.

With `[2H]C([2H])([2H])c1ccc(S(=O)(=O)NC23CCN(CC2)C3)cc1-c1cnc(N)c(-c2cnc(C)s2)n1` [Example 91, 3-(5-amino-6-(2-methylthiazol-5-yl)pyrazin-2-yl)-N-(1-azabicyclo[2.2.1]heptan-4-yl)-4-(methyl-d3)benzenesulfonamide], the IC50 in assay [1], in assay [2] and in assay [3] was not above 100 nM in each case.

Regarding `[2H]C([2H])([2H])c1ccc(S(=O)(=O)NC23CCC(C#N)(C2)C3)cc1-c1cnc(N)c(-c2ccncn2)n1` [Example 72, 3-(5-Amino-6-(pyrimidin-4-yl)pyrazin-2-yl)-N-(4-cyanobicyclo[2.1.1]hexan-1-yl)-4-(methyl-d3)benzenesulfonamide trifluoroacetate salt], the IC50 in assay [1], in assay [2] and in assay [3] was not above 100 nM in each case.

As to `CNC(=O)OCC12CC(NS(=O)(=O)c3ccc(C)c(-c4cnc(N)c(-n5cncn5)n4)c3)(C1)C2` [Example 31, (3-(3-(5-Amino-6-(1H-1,2,4-triazol-1-yl)pyrazin-2-yl)-4-methylphenylsulfonamido)bicyclo[1.1.1]pentan-1-yl)methyl Methylcarbamate Trifluoroacetate Salt], the IC50 is not above 100 nM in assay [1], not above 500 nM in assay [2] and not above 500 nM in assay [3].

One may read the IC50 as the point on the concentration scale where inhibition reaches its midpoint.
